Earlier results in patent US7419680B2, “Calcium phosphate-based materials containing zinc, magnesium, fluoride and carbonate” (New York University, priority 2003, dated 2008).

Conditions: earlier studies

Substance: b-alanyl-L-histadanato zinc
- bone density / bone loss in vivo: effective in increasing bone density or in preventing bone loss in vivo
